≈ marks a conversion by molar mass, not a printed value. Entries after “also recorded” stand apart in the source; their conditions may differ.
Key:
E. coli DNA gyrase = target: T1, E. coli DNA gyrase (Escherichia coli, UniProt P0AES4+P0AES6); experiment: DNA gyrase super-coiling activity assay (Topogen kit, relaxed pHOT1 plasmid); type: biochemical; details: 1 μM and 2.5 μM
T1 construct: purchased Topogen Inc
Protocol: DNA super-coiling activity was assayed using DNA gyrase assay kit (Topogen Inc.) with relaxed pHOT1 E. coli plasmid DNA according to manufacturer's protocol. The standard reaction mixture (20 μl) contained 35 mM Tris-HCl (pH 7.5), 24 mM KCl, 4 mM MgCl2, 2 mM dithiothreitol, 1.8 mM spermidine, 1 mM ATP, 6.5% glycerol, 0.1 mg/ml bovine serum albumin (BSA), 10 μg/ml relaxed pHOT1 plasmid DNA and 1 U of DNA gyrase. The reaction mixture was incubated at 37° C. for 1 h in presence of selected compounds/fluoroquinolone at different concentrations. The reaction was terminated by addition of ⅕ volume of loading dye (4 μl) followed by proteinase K (50 μg/ml) and again incubated at 37° C. for half an hour. 20 μl chloroform/isoamyl alcohol (24:1) was added to each tube and vortexed briefly. Thereafter, the blue aqueous phase was separated out and analyzed by 1% agarose gel electrophoresis. The gel was stained by ethidium bromide for half an hour and destained with water for 15 mins. The gel was then visualized in a trans-illuminator and photographed.

S. aureus MTCC 6908 = experiment: MIC by micro broth dilution, laboratory S. aureus strain; type: cell-based, Staphylococcus aureus; details: for MIC: Staphylococcus aureus, MTCC6908, Table 6, read-out: MIC Susceptible S. aureus (6908) strain
Protocol: (§1) The plates were incubated at 37° C. for 48 h under anaerobic condition for P. acnes and 37° C. for 24 h for S. aureus The plates were read under Bio-Rad plate reader at 595 nm for optical density to generate the dose-response curves. The MIC of the test compound was recorded by addition of Alamar blue dye.
S. aureus MTCC 6908 were grown in Tryptone Soya Agar (TSA) at 37° C. for 24 hours. […] Plates were incubated at 37° C. for 24 hours. […] (2) Zone of Inhibition (ZOI): S. aureus MTCC 6908 were grown in Tryptone Soya Agar (TSA) at 37° C. for 24 hours. BHA plates are spreaded with 100 μl of 0.5 McFarland standard equal bacterial suspension. Test samples (drugs/formulations) were dissolved in water/solvent based on the solubility. Sterile disc (6 mm) were loaded with 10 μl of test samples (of various concentration of drug), and were placed above the spreaded plates. Plates were incubated at 37 C for 24 h, followed by ZOI measurement. (3) Time Kill Assay: 0.5 McFarland standard equal S. aureus culture was prepared in sterile water. Besifloxacin gels were diluted in Tryptone Soya broth (TSB) to get final concentration of 25 μg/ml. Then 900 μl of S. aureus 0.5 McFarland standard equal culture and 100 μl of diluted Besifloxacin gel was mixed to obtain final Besifloxacin concentration, 2.5 μl g/ml. Total reaction mixture (1 ml) was incubated at 37° C. in a tube rotator. After 2 and 6 h exposure, bacterial suspension was placed on Tryptone soya agar plate and incubated at 37° C. for 24 h.
Inoculated plates were incubated at 37° C. for 24 hours.

P. acnes CCARM 9010 = experiment: MIC by micro broth dilution (Alamar blue), clindamycin-resistant/nonresponsive P. acnes; type: cell-based, Propionibacterium acnes; details: for MIC: Cutibacterium acnes, CCARM9010, read-out: MIC Resistant P. acnes (9010) strain; for Activity / bacterial killing, dose response curve (in words): clindamycin-nonresponsive CCARM 9010
Protocol: as §1
(§2) P. acnes (MTCC 3297, MTCC 1951& CCARM 9010) are cultured in Brain Heart Infusion (BHI) Broth at 37° C. for 48-72 h under anaerobic condition. The test compounds/formulations are initially diluted with suitable solvent and further diluted with BHI broth to get the required concentrations. Samples (100 μl) of different concentrations (prepared by serial dilution) are added to 96-well plate. To the wells, 100 μl of P. acnes BHI broth culture is added [culture turbidity adjusted against 0.5 McFarland standard (approx 1.5×10^8), and further diluted 100-fold with sterile BHI broth]. In addition Growth Control and Sterility Control are created using 100 μl each of P. acnes BHI broth culture and plain BHI broth, respectively.
(§3) Plates are incubated at 37° C. for 48-72 hrs under anaerobic condition. The plate is read under Bio-Rad plate reader @ 595 nm for optical density to generate the dose-response curves. The MIC of the test compound is recorded by addition of Alamar blue dye.

P. acnes MTCC 1951 = experiment: MIC by micro broth dilution (Alamar blue), clindamycin-susceptible P. acnes; type: cell-based, Propionibacterium acnes; details: for MIC: Cutibacterium acnes, MTCC1951, read-out: MIC Susceptible P. acnes (1951) strain; for Activity / bacterial killing, dose response curve (in words): clindamycin-susceptible MTCC 1951
Protocol: as §1, §2, §3
BHI broth and BHI agar media were prepared as per the manufacturer's instruction and autoclaved at 121° C. for 15 minutes. […] For MIC determination testing, gels are dissolved in the solvent and further diluted with BHI broth. Then, 96 wells plate are filled with 100 μl of BHI broth containing drug with different concentration to get the final concentrations of 0.06, 0.13, 0.25, 0.5, 1 and 2 μg/ml in different lanes (lane 1 to lane 6). Remaining lanes of the 96 well plate are used as growth control and sterility control. Finally, P. acnes culture suspension (approx 1.5×10^6) is added in all the wells except sterility control wells and plate is incubated at 37° C. for 48-72 h under anaerobic condition. At the end of 72 h, Alamar blue solution (20 μl) is added into the wells and incubated at 37° C. for 2 h. Plate is visualized for bacterial inhibitions and MIC values of the tested samples are determined. […]

T1 sequence (P0AES4 whole entry, one chain of several): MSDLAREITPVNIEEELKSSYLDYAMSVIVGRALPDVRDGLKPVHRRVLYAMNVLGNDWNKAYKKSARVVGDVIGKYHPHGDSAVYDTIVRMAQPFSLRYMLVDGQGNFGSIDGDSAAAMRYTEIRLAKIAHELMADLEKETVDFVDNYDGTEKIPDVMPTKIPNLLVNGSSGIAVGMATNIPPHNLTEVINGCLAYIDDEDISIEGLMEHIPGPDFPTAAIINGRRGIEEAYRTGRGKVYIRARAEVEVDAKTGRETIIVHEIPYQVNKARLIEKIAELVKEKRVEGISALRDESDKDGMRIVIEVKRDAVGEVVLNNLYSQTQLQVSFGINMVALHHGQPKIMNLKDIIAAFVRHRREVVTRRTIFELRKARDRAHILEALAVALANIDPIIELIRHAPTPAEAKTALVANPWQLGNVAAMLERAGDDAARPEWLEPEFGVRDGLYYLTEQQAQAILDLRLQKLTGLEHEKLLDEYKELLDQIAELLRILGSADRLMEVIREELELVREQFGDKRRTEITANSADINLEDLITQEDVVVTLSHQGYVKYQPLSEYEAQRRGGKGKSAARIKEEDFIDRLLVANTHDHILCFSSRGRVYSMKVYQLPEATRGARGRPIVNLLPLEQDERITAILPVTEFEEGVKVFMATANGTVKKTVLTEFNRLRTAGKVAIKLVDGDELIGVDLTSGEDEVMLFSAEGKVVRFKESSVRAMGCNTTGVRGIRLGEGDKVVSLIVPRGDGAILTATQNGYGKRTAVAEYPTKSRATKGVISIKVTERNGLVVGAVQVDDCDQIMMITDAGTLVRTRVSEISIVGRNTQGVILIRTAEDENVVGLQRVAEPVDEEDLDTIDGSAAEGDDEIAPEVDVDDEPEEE

SMILES | Inhibition of super-coiling activity of DNA gyrase (in words) (E. coli DNA gyrase) | MIC (S. aureus MTCC 6908) | MIC (P. acnes CCARM 9010) | Activity / bacterial killing, dose response curve (in words) (P. acnes CCARM 9010) | MIC (P. acnes MTCC 1951) | Activity / bacterial killing, dose response curve (in words) (P. acnes MTCC 1951) | Activity against S. aureus strain (in words) (S. aureus MTCC 6908)
Cc1oc(=O)oc1CN1CCN(c2cc3c(cc2F)c(=O)c(C(=O)OC(CCl)Cn2c([N+](=O)[O-])cnc2C)c2n3C(C)S2)CC1 (stereo not shown) [Compound 94, 6-Fluoro-1-methyl-7-[4-(5-methyl-2-oxo-[1,3]dioxol-4-ylmethyl)-piperazin-1-yl]-4-oxo-4H-2-thia-8b-aza-cyclobuta[a]naphthalene-3-carboxylic acid 1-chloromethyl-2-(2-methyl-5-nitro-imidazol-1-yl)-ethyl ester] | able to inhibit the super-coiling activity | 2.8 µg/mL (≈ 4.22 µM) | 3 µg/mL (≈ 4.52 µM) | hardly showed any activity | 3 µg/mL (≈ 4.52 µM) | hardly showed any activity | –
CCCCCCCCCCCC(=O)OC(CN1CCN(c2cc3c(cc2F)c(=O)c(C(=O)O)c2n3C(C)S2)CC1)Cn1c([N+](=O)[O-])cnc1C (stereo not shown) [Compound 113, 7-{4-[2-Dodecanoyloxy-3-(2-methyl-5-nitro-imidazol-1-yl)-propyl]-piperazin-1-yl}-6-fluoro-1-methyl-4-oxo-4H-2-thia-8b-aza-cyclobuta[a]naphthalene-3-carboxylic acid] | able to inhibit the super-coiling activity | > 8.2 µg/mL | 8 µg/mL (≈ 11.2 µM) | hardly showed any activity | 8.2 µg/mL (≈ 11.5 µM) | hardly showed any activity | least activities
Cc1ncc([N+](=O)[O-])n1CC(O)CCCCN1CCN(c2cc3c(cc2F)c(=O)c(C(=O)O)c2n3C(C)S2)CC1 (stereo not shown) [Compound 115, 6-Fluoro-7-{4-[5-hydroxy-6-(2-methyl-5-nitro-imidazol-1-yl)-hexyl]-piperazin-1-yl}-1-methyl-4-oxo-4H-2-thia-8b-aza-cyclobuta[a]naphthalene-3-carboxylic acid] | able to inhibit the super-coiling activity | 1.6 µg/mL (≈ 2.78 µM) | 0.8 µg/mL (≈ 1.39 µM) | more than double MIC values | 0.4 µg/mL (≈ 0.696 µM) | more than double MIC values | –
Cc1ncc([N+](=O)[O-])n1CC(O)CCN1CCN(c2cc3c(cc2F)c(=O)c(C(=O)O)c2n3C(C)S2)CC1 (stereo not shown) [Compound 116, 6-Fluoro-7-{4-[3-hydroxy-4-(2-methyl-5-nitro-imidazol-1-yl)-butyl]-piperazin-1-yl}-1-methyl-4-oxo-4H-2-thia-8b-aza-cyclobuta[a]naphthalene-3-carboxylic acid] | able to inhibit the super-coiling activity; also recorded: highly potent; also recorded: best gyrase inhibiting activity | 1.64 µg/mL (≈ 3 µM) | 0.8 µg/mL (≈ 1.46 µM) | more than double MIC values | 0.4 µg/mL (≈ 0.732 µM) | more than double MIC values | –

Source: patent US10071103B2, “Treatments for resistant acne” (VYOME BIOSCIENCES PVT. LTD., priority 2014, dated 2018)
